Values of other authors in patent US20170224756A1, “Antioxidants Against Oxidative Stress During a Stressor Event” (MERIAL INC., priority 2016, published 2017).

Tests used:
[1] = tested on: gastric lesions; details: indomethacin in rats
[2] = tested on: endothelial dysfunction; details: locally administered; human forearms after typhoid vaccination
[3] = tested on: oxidative stress; details: heat-stressed quail

[Se] [Se/DMSO, selenium]
enzymatic antioxidants superoxide dismutase, catalase and glutathione peroxidase [1]: increased
gastric lesions [1]: significantly reduced

O=C1O[C@H]([C@@H](O)CO)C(O)=C1O [ascorbic acid]
endothelial dysfunction, reduced vascular nitric oxide bioavailability and increased oxidative stress [2]: partially reversible

epigallocatechin-3-gallate [EGCG]
heat stress induced oxidative stress [3]: alleviates
